Like-named read-outs stand apart in the source and are kept apart here.
Experiments:
[1] = system: Phosphorylation of ERK1/2 in MIA PaCa-2 cells; experiment: Phospho-ERK1/2 MSD assay in MIA PaCa-2 cells; type: cell-based; conditions: read-out: p-ERK IC50 (2 h, MiaPaCa-2; μM)
Method: (§1) Phospho-ERK1/2 MSD Assay:
(§2) Sixteen hours prior to compound treatment, MIA PaCa-2 or A549 cells were seeded in 96-well cell culture plates at a density of 25,000 cells/well and incubated at 37° C., 5% CO2. A compound dose-response titration was diluted in growth media, added to appropriate wells of a cell culture plate, and then incubated at 37° C., 5% CO2 for 2 or 4 hours (see Table 15). Following compound treatment, cells were stimulated with 10 ng/mL EGF (Roche 11376454001) for 10 min, washed with ice-cold Dulbecco's phosphate-buffered saline, no Ca2+ or Mg2+ (ThermoFisher Scientific 14190144), and then lysed in RIPA buffer (50 mM Tris-HCl pH 7.5, 1% Igepal, 0.5% sodium deoxycholate, 150 mM NaCl. and 0.5% sodium dodecyl sulfate) containing protease inhibitors (Roche 4693132001) and phosphatase inhibitors (Roche 4906837001). Phosphorylation of ERK1/2 in compound-treated lysates was assayed using Phospho-ERK1/2 Whole Cell Lysate kits (Meso Scale Discovery K151DWD) according to the manufacturer's protocol.

[2] = system: Phosphorylation of ERK1/2 in A549 cells; experiment: Phospho-ERK1/2 MSD assay in A549 cells; type: cell-based; conditions: read-out: p-ERK IC50 (2 h, A549; μM)
Method: as §1
as §2, with “MIA PaCa-2 (ATCC® CRL-1420™) and A549 (ATCC® CCL-185™) cells were cultured in RPMI 1640 Medium (ThermoFisher Scientific 11875093) containing 10% fetal bovine serum (ThermoFisher Scientific 16000044) and 1× penicillin-streptomycin-glutamine (ThermoFisher Scientific 10378016). Sixteen” for “Sixteen”

[3] = molecular target: GDP-bound KRAS protein (aa 1-169), containing both G12C and C118A amino acid substitutions (Homo sapiens (Human), UniProt P01116, C118A/G12C); experiment: Coupled nucleotide exchange assay (SOS-mediated nucleotide exchange, AlphaScreen); type: biochemical; conditions: 5 min compound pre-incubation; for IC50: read-out: Coupled exchange IC50 (5 min; μM)
GDP-bound KRAS protein (aa 1-169), containing both G12C and C118A amino acid substitutions, sequence (P01116 other isoform, or with tags, fused parts or gaps G12C/C118A): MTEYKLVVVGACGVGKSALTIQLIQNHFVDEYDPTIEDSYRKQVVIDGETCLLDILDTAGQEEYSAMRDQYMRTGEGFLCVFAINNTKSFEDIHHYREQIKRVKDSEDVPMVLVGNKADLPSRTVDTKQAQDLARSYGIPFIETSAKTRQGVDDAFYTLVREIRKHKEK

[4] = Homo sapiens, MIA PaCa-2, 2 h, 2 h compound treatment, MIA PaCa-2 cells, EGF stimulated
[5] = Homo sapiens, A549, 2 h, 2 h compound treatment, A549 cells, EGF stimulated
[6] = 2 h compound treatment, MIA PaCa-2 cells, EGF stimulated
[7] = 2 h compound treatment, A549 cells, EGF stimulated

IC50 [1, 4] [µM] | IC50 [2, 5] [µM] | Compound | IC50 [1, 6] [µM] | other results
0.119 | > 7.5 | C=CC(=O)N1C[C@H](C)N(c2nc(=O)n(-c3c(C)ccnc3C(C)C)c3nc(-c4cscc4C)c(Cl)cc23)C[C@H]1C (atropisomer, axis not shown; (M)) [Example 92-5, (M)-6-Chloro-4-[(2S,5R)-2,5-dimethyl-4-prop-2-enoyl-piperazin-1-yl]-1-(2-isopropyl-4-methyl-3-pyridyl)-7-(4-methyl-3-thienyl)pyrido[2,3-d]pyrimidin-2-one] | – | –
0.237 | > 7.5 | C=CC(=O)N1C[C@H](C)N(c2nc(=O)n(-c3c(C)ccnc3C(C)C)c3nc(C4=CCCCC4)c(Cl)cc23)C[C@H]1C (atropisomer, axis not shown; (M)) [Example 92-6, (M)-6-Chloro-7-(cyclohexen-1-yl)-4-[(2S,5R)-2,5-dimethyl-4-prop-2-enoyl-piperazin-1-yl]-1-(2-isopropyl-4-methyl-3-pyridyl)pyrido [2,3-d]pyrimidin-2-one] | – | –
0.259 | > 7.5 | C=CC(=O)N1C[C@H](C)N(c2nc(=O)n(-c3c(C)ccnc3C(C)C)c3nc(-c4cc(C)sc4C)c(Cl)cc23)C[C@H]1C (atropisomer, axis not shown; (M)) [Example 92-7, (M)-6-Chloro-4-[(2S,5R)-2,5-dimethyl-4-prop-2-enoyl-piperazin-1-yl]-7-(2,5-dimethyl-3-thienyl)-1-(2-isopropyl-4-methyl-3-pyridyl)pyrido [2,3-d]pyrimidin-2-one] | – | –
– | – | C=CC(=O)N1C[C@H](C)N(c2nc(=O)n(-c3c(C)ccnc3C(C)C)c3nc(-c4ccccc4CO)c(F)cc23)C[C@H]1C (atropisomer, axis not shown; (M)) [Example 94-2, (M)-4-[(2S,5R)-2,5-dimethyl-4-prop-2-enoyl-piperazin-1-yl]-6-fluoro-7-[2-(hydroxymethyl)phenyl]-1-(2-isopropyl-4-methyl-3-pyridyl)pyrido [2,3-d]pyrimidin-2-one] | – | IC50 ([1]; Homo sapiens, MIA PaCa-2, 2 h): 0.204 µM; IC50 ([2]; Homo sapiens, A549, 2 h): > 7.5 µM
– | > 7.5 | C=CC(=O)N1C[C@H](C)N(c2nc(=O)n(-c3c(C)ccnc3C(C)C)c3nc(-c4c(F)cccc4[S+](C)[O-])c(Cl)cc23)C[C@H]1C (atropisomer, axis not shown; (M)) [Example 211-1, (M)-4-((2S,5R)-4-Acryloyl-2,5-dimethylpiperazin-1-yl)-6-chloro-7-(2-fluoro-6-(methylsulfinyl)phenyl)-1-(2-isopropyl-4-methylpyridin-3-yl)pyrido[2,3-d]pyrimidin-2(1H)-one] | 0.128 | –
– | – | C=CC(=O)N1C[C@H](C)N(c2nc(=O)n(-c3c(C)ccnc3C(C)C)c3nc(-c4c(F)cccc4[S+](C)[O-])c(Cl)cc23)C[C@H]1C (atropisomer, axis not shown; (M)) [Example 211-2, (M)-4-((2S,5R)-4-Acryloyl-2,5-dimethylpiperazin-1-yl)-6-chloro-7-(2-fluoro-6-(methylsulfinyl)phenyl)-1-(2-isopropyl-4-methylpyridin-3-yl)pyrido[2,3-d]pyrimidin-2(1H)-one] | 0.106 | IC50 [2, 7]: > 7.5 µM
– | – | C=CC(=O)N1C[C@H](C)N(c2nc(=O)n(-c3c(C)ccnc3C(C)C)c3nc(-c4c(F)cccc4[S+](C)[O-])c(Cl)cc23)C[C@H]1C (atropisomer, axis not shown; (M)) [Example 211-3, (M)-4-((2S,5R)-4-Acryloyl-2,5-dimethylpiperazin-1-yl)-6-chloro-7-(2-fluoro-6-(methylsulfinyl)phenyl)-1-(2-isopropyl-4-methylpyridin-3-yl)pyrido[2,3-d]pyrimidin-2(1H)-one] | 0.253 | IC50 [2, 7]: > 7.5 µM
– | – | C=CC(=O)N1C[C@H](C)N(c2nc(=O)n(-c3c(C)ccnc3C(C)C)c3nc(-c4ccccc4[S+](C)[O-])c(Cl)cc23)C[C@H]1C (atropisomer, axis not shown; (M)) [Example 212-2, (M)-4-((2S,5R)-4-Acryloyl-2,5-dimethylpiperazin-1-yl)-6-chloro-1-(2-isopropyl-4-methylpyridin-3-yl)-7-(2-(methylsulfinyl)phenyl)pyrido[2,3-d]pyrimidin-2(1H)-one] | 0.237 | IC50 [2, 7]: > 7.5 µM
– | – | C=CC(=O)N1C[C@H](C)N(c2nc(=O)n3c4nc(c(Cl)cc24)-c2ccccc2C/C=C/Cc2cccc(C(C)C)c2-3)C[C@H]1C (single isomer, unassigned) [Example 146-2-1] | 0.024 | IC50 [3]: 0.025 µM
– | > 7.5 | C=CC(=O)N1C[C@H](C)N(c2nc(=O)n(-c3c(C(C)C)cnc(C)c3C)c3nc(-c4ccccc4F)c(Cl)cc23)C[C@H]1C [Example 179, 4-((2S,5R)-4-Acryloyl-2,5-dimethylpiperazin-1-yl)-6-chloro-7-(2-fluorophenyl)-1-(5-isopropyl-2,3-dimethylpyridin-4-yl)pyrido[2,3-d]pyrimidin-2(1H)-one] | – | –
10 | – | C=CC(=O)N1CCN(c2nc(=O)n(CC(C)(C)O)c3nc(-c4ccccc4F)c(Cl)cc23)CC1 [Example 180, 4-(4-Acryloylpiperazin-1-yl)-6-chloro-7-(2-fluorophenyl)-1-(2-hydroxy-2-methylpropyl)pyrido[2,3-d]pyrimidin-2(1H)-one] | – | Coupled exchange IC50 (5 min; μM) [3]: 85.1 µM
– | – | C=CC(=O)N1C[C@H](C)N(C2=NC(=O)CN(CC(C)(C)C)c3nc(-c4ccccc4F)c(Cl)cc32)C[C@H]1C [Example 217, 5-((2S,5R)-4-Acryloyl-2,5-dimethylpiperazin-1-yl)-7-chloro-8-(2-fluorophenyl)-1-neopentyl-1,2-dihydro-3H-pyrido[2,3-e][1,4]diazepin-3-one] | – | IC50 ([2]; Homo sapiens, A549, 2 h): > 7.5 µM

Compound | IC50 [1, 4] [µM] | IC50 [2, 5] [µM] | IC50 [1, 6] [µM] | other results
C=CC(=O)N1C[C@H](C)N(c2nc(=O)n(-c3c(C)ccnc3C(C)C)c3nc(-c4cc(F)c(F)c(F)c4N)c(Cl)cc23)C[C@H]1C (atropisomer, axis not shown; (M)) [Example 92-38, (M)-7-(2-Amino-3,4,5-trifluoro-phenyl)-6-chloro-4-[(2S,5R)-2,5-dimethyl-4-prop-2-enoyl-piperazin-1-yl]-1-(2-isopropyl-4-methyl-3-pyridyl)pyrido [2,3-d]pyrimidin-2-one] | 0.042 | > 7.5 | – | –
C=CC(=O)N1C[C@H](C)N(c2nc(=O)n(-c3c(C)ccnc3C(C)C)c3nc(-c4ccccc4[S+](C)[O-])c(Cl)cc23)C[C@H]1C (atropisomer, axis not shown; (M)) [Example 212-1, (M)-4-((2S,5R)-4-Acryloyl-2,5-dimethylpiperazin-1-yl)-6-chloro-1-(2-isopropyl-4-methylpyridin-3-yl)-7-(2-(methylsulfinyl)phenyl)pyrido[2,3-d]pyrimidin-2(1H)-one] | – | > 7.5 | 0.705 | –
C=CC(=O)N1C[C@H](C)N(c2nc(=O)n(-c3c(N(C)C)ccnc3C(C)C)c3nc(-c4c(F)cccc4NC(=O)CC)c(Cl)cc23)C[C@H]1C [Example 122-2, N-[2-[6-Chloro-1-[4-(dimethylamino)-2-isopropyl-3-pyridyl]-4-[(2S,5R)-2,5-dimethyl-4-prop-2-enoyl-piperazin-1-yl]-2-oxo-pyrido[2,3-d]pyrimidin-7-yl]-3-fluoro-phenyl]propanamide] | 1.21 | – | – | IC50 [3]: 0.357 µM
C=CC(=O)N1C[C@H](C)N(c2nc(=O)n(-c3c(C)cc(S(C)(=O)=O)cc3C(C)C)c3nc(-c4ccccc4F)c(Cl)cc23)C[C@H]1C [Example 215, 4-((2S,5R)-4-Acryloyl-2,5-dimethylpiperazin-1-yl)-6-chloro-7-(2-fluorophenyl)-1-(2-isopropyl-6-methyl-4-(methylsulfonyl)phenyl)pyrido[2,3-d]pyrimidin-2(1H)-one] | 0.275 | – | – | IC50 [3]: 0.076 µM

— patent publication US11285156B2, “Substituted piperazines as KRAS G12C inhibitors” (Amgen Inc., priority 2018, dated 2022)
